Reference: patent US20090062255A1, “TUMOR-TARGETING EVALUATION METHODOLOGY AND COMPOUNDS RELATED THERETO” (THALLION PHARMACEUTICALS INC., priority 2007, published 2009)

What was measured:
PBR = biological target: T1, PBR (Rattus norvegicus, UniProt P16257); experiment: In vivo PBR occupancy by PET (11C-(R)-PK11195) following IP administration; conditions: 30 mg/kg IP
T1 construct: from tissue; host or cells: orthotopic rat C6 glioma in Sprague-Dawley rats, in vivo
Protocol: (R)-1-(2-chlorophenyl)-N-methyl-N-(1-methyl-propyl)-3-isoquinoline carboxamide (R N-desmethyl PK11195), the precursor for the radioisotope-labeled (R) —PK11195, was purchased from ABX (Radeburg, Germany). The synthesis of ^11C-(R)-PK11195 was accomplished by a modification of the method of Camsonne et al. (J. Label. Compd. Radiopharm., 21: 985-991,1984). Briefly, ^11C-methyl iodide (^11C—CH3I) was transferred by a stream of nitrogen gas at a flow rate of 10 ml/min into a reaction medium containing 1 mg or R—N-desmethyl PK11195 previously dissolved in 0.5 mL of dimethylsulfoxide (DMSO) and about 20 mg of sodium hydroxide. The reaction was initiated at room temperature, with a bubbling of the ^11C—CH3I being continued over a 5 minute period. After bubbling was complete, the reaction mixture was left standing for 5 minutes. Purification was performed by high pressure liquid chromatography (HPLC) using a reverse-phase C18 column and a methanol:ammonium formate (20 mM) (80:20) mixture and a mobile phase at a flow rate of 3 mL/min. ^11C—(R) —PK11195 was eluted at 11 minutes and obtained with a specific radioactivity of […].
In vivo PET studies were performed 14 days post tumor implantation. […] Attenuation correction factors, for each rat (total of 7 animals), were determined using a 10 min ^57Co transmission scan acquired immediately prior to the dynamic scan. […]

[1] = test system: PC-3 (prostate adenocarcinoma); experiment: In vitro cytotoxic activity (GI50, propidium iodide), PC-3; type: cell-based, human; conditions: method (2)
Protocol: (§1) Procedures used for each series of tests are described below.
(§2) Compounds were dissolved at 10 mM in DMSO. […] The following day, propidium iodide was added to one of the two plates and fluorescence measured (Tz). […] Each compound was tested at each concentration and in triplicates. The equivalent cell number was determined after adding propidium iodide by measuring the signal by fluorescence (C for control).

SRBC = experiment: Hemolysis of SRBC; type: cell-based; conditions: concentration necessary to achieve 50% hemolysis of SRBC
[2] = test system: HT-29 (colorectal carcinoma); experiment: In vitro cytotoxic activity (GI50, propidium iodide), HT-29; type: cell-based; conditions: method (2), 96 hrs
Protocol: as §1, §2

[3] = test system: MDA-MB-231 (mammary gland adenocarcinoma); experiment: In vitro cytotoxic activity (GI50, propidium iodide), MDA-MB-231; type: cell-based, human; conditions: method (2), 96 hrs
Protocol: as §1, §2

SF268 (CNS) = experiment: In vitro cytotoxic activity (GI50, propidium iodide), SF-268; type: cell-based; conditions: method (2), 96 hrs
Protocol: as §1, §2

[4] = biological target: T2, peripheral benzodiazepine receptor (PBR) (Rattus norvegicus, UniProt P16257); experiment: In-house PBR binding assay ([3H]PK11195, rat heart mitochondrial membranes); conditions: in-house radioligand-binding assay
T2 construct: CBR and PBR were obtained from rat brain and heart membrane-fractions, respectively; from tissue; host or cells: Wistar rat heart membranes

[5] = test system: MES-SA/DX5 (doxorubicin-resistant P-glycoprotein over-expressing variant); experiment: Growth inhibitory MTT assay, MES-SA/DX5; type: cell-based, human; conditions: 72 hours, treated over control
Protocol: (§3) Growth inhibitory activity of ECO-4601 (Compound 1) and other dibenzodiazepinone analogs was evaluated on a panel of 4 human tumor cell lines: the human uterine sarcoma MES-SA and its doxorubicin-resistant P-glycoprotein over-expressing variant, MES-SA/DX5 as well as non-aggressive and highly aggressive human breast cell lines, MCF-7 and MDA-MB-231, respectively. These four cell lines were obtained from the American Type Culture Collection (Manassas, Va.) and cultured in RPMI plus 10% fetal bovine serum (FBS) and maintained at 37° C. with 5% CO2.
(§4) Exponentially growing cells (5,000 cells per well time; cell number determined with a hemocytometer) were seeded in 96-well flat-bottom plates and allowed to grow overnight. Cells were then incubated for 72 hours with three different concentrations of ECO-4601 or analogs: 30,10, and 3 μM. The in vitro growth inhibitory activity was determined by a commercial MTT assay. All measurements were done in quadruplicate and each experiment was performed 2-3 times. The lower the value, the more cytotoxic is the compound.

[6] = test system: human uterine sarcoma MES-SA; experiment: Growth inhibitory MTT assay, MES-SA; type: cell-based; conditions: 72 hours, treated over control
Protocol: as §3, §4

[7] = test system: human breast cell line MCF-7; experiment: Growth inhibitory MTT assay, MCF-7; type: cell-based; conditions: 72 hours, treated over control
Protocol: as §3, §4

[8] = test system: human breast cell line MDA-MB-231; experiment: Growth inhibitory MTT assay, MDA-MB-231; type: cell-based; conditions: 72 hours, treated over control
Protocol: as §3, §4

[9] = test system: prenylation of Ras, RAP1A and HDJ2 (FTase, GGTase I); experiment: Protein prenylation immunoblot (FTase and GGTase I activities) in MCF-7 cells; type: cell-based, human; conditions: MCF7 cells, 3, 10 and 30 μM, 24 h
Protocol: It was first verified if ECO-4601 interferes with Ras processing by monitoring FTase and GGTase I activities by immunoblot analysis. For these experiments, exponentially growing MCF-7 (human breast tumor) cells were seeded in 60 mm cell culture dishes at a density of 2.5×10^6 cells per dish. After an 18 h incubation period, ECO-4601 or lovastatin (Sigma-Aldrich, St. Louis, Mo.) were added at a final concentration of 3, 10 and 30 μM for 24 h. Cells were also treated with the vehicle alone (0.05% DMSO) for the same incubation periods. Treated and control cells were lysed in ice-cold RIPA buffer (50 mM Tris-HCl pH 7.4, 1% Triton X-100, 1% deoxycholate, 0.1% SDS, 150 mM NaCl, and 1 mM EDTA) containing protease inhibitors (Roche, Mannheim, Germany) and phosphatase inhibitors (EMD Biosciences, Calbiochem, San Diego, Calif.) for 20 minutes on ice. After lysis, cell debris was removed by centrifugation at 12000×g for 10 min. […] Bound antibodies were detected using horseradish peroxidase-conjugated secondary antibodies (Jackson ImmunoResearch Laboratories Inc., West Grove, Pa.) for 1 h at room temperature in 0.5% skim milk-TBS, visualized by treating the membranes with enhanced chemiluminescence reagents (Millipore, Mississauga, ON, Canada) and exposing them to BioMax Light Films (Kodak, Mississauga, ON, Canada). […]

10-farnesyl-4,6,8-trihydroxy-5,10-dihydrodibenzo[b,e][1,4]diazepin-11-one [Compound 1]
reduction of PBR occupancy for 11C-(R)-PK11195 binding, average (PBR): 31%

C/C(=C\CN1C(=O)c2cccc(O)c2Nc2c(O)cc(O)cc21)CC/C=C(\C)CCC1OC1(C)C (stereo not drawn) [Compound 18]
GI50 ([1]; Homo sapiens, 96 h): > 30 µM | Hemolysis (ED50 μg/mL) (SRBC): >64 µg/mL

COC(C)(CCC=C(C)C)CCC/C(C)=C/CN1C(=O)c2cccc(O)c2Nc2c(O)cc(O)cc21 (stereo not drawn) [Compound 83]
GI50 [2]: 19.6 µM | GI50 [3]: 6.71 µM | GI50 ([1]; 96 hrs): 13.2 µM | GI50 (SF268 (CNS)): 9.74 µM | Hemolysis (ED50 μg/mL) (SRBC): 12.4 µg/mL

CC(=O)NC(C)(CCC=C(C)C)CCCC(C)=CCN1C(=O)c2cccc(O)c2Nc2c(O)cc(O)cc21 (stereo not drawn) [Compound 92, 10-(7-acetamido-3,7,11-trimethyldodeca-2,10-dienyl)-4,6,8-trihydroxy-5,10-dihydro-dibenzo[b,e][1,4]diazepin-11-one]
Hemolysis (ED50 μg/mL) (SRBC): >64 µg/mL

CC(C)=CCC/C(C)=C/CC/C(C)=C/CN1C(=O)c2cccc(O)c2Nc2c1cc(O)c(Br)c2O [Compound 97, 10-(farnesyl)-7-bromo-4,6,8-trihydroxy-5,10-dihydro-dibenzo[b,e][1,4]diazepin-11-one]
Hemolysis (ED50 μg/mL) (SRBC): 15.1 µg/mL

[2H]C([2H])([2H])N1c2c(O)cccc2C(=O)N(C/C=C(\C)CC/C=C(\C)CCC=C(C)C)c2cc(O)cc(O)c21 [Compound 98, 10-Farnesyl-4,6,8-trihydroxy-5-(trideuteriomethyl)-5,10-dihydro-dibenzo[b,e][1,4]diazepin-11-one]
Hemolysis (ED50 μg/mL) (SRBC): 4.5 µg/mL

CC(C)=CCC/C(C)=C/CC/C(C)=C/CN1C(=O)c2cccc(O)c2N(C)c2c1cc(O)c(Br)c2O [Compound 99]
IC50 [4]: 0.01 µM

CC(C)=CCC/C(C)=C/CC/C(C)=C/CN1C(=O)c2cccc(O)c2Nc2c1cc(O)c(C1CCCO1)c2O (stereo not drawn) [Compound 100]
% T/C at 10 μM [5]: 86% | % T/C at 10 μM [6]: 18% | IC50 [4]: 0.01 µM | % T/C at 10 μM [7]: 38% | % T/C at 10 μM [8]: 43%

CC[C@H](C)C(=O)O[C@H]1C[C@@H](C)C=C2C=C[C@H](C)[C@H](CC[C@@H]3C[C@@H](O)CC(=O)O3)[C@H]21 [lovostatin, lovastatin, reference compound]
effect on protein prenylation (mobility shift of Ras, RAP1A and HDJ2) [9]: expected mobility shift
